Data: patent US5733749A, “Glycerol phosphatase with stereo-specific activity” (priority 1995, dated 1998)
“Also recorded” adds a separate entry of the source.

How the values were obtained:
[1] = biological target: T1, B. licheniformis D-GPase (Bacillus licheniformis, UniProt Q65CZ1); assay: Effect of ADP and inorganic phosphate on D-GPase activity; assay type: biochemical
T1 construct: about 25 kDa by gel filtration
T1 sequence (Q65CZ1 1-216): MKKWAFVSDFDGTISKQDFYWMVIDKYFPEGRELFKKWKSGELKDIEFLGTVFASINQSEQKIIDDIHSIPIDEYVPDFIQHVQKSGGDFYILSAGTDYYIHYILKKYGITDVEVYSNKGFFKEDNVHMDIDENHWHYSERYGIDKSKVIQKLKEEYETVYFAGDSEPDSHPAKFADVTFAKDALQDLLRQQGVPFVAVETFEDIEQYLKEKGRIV
Procedure: GPase activity was measured by combining cell extract and the appropriate stereoisomer(s) (DL or L) of GP, incubating the mixture, terminating the reaction with acid, and determining the glycerol content by high-performance liquid chromatography (HPLC) analysis. Assay mixtures consisted of, in a total of 500 μl:25 mM MgCl2 ; 25-50 mM PIPES [piperazine-N,N'-bis(2-ethanesulfonic acid)], pH 7.1; 25-100 mM substrate; and the required volume of cell extract. Incubations were carried out at 37° C. for 30-150 min in microcentrifuge tubes, then 72 μl of 20% trichloroacetic acid (TCA) was added (2.5% final) to each tube to stop the reaction. The samples were spun in a microcentrifuge to remove any precipitate, and the supernatants were filtered through Supor-200 0.2 μm membrane filters (Gelman Sciences, Ann Arbor, Mich.) and analyzed for glycerol by HPLC. Assays for dephosphorylation of other compounds were also analyzed by HPLC (for the dephosphorylated compound) and carried out in the same way as the assays with GP as substrate. Assays for p-nitrophenyl phosphate (PNPP) hydrolysis were the same as with GP as substrate but were carried out with 1.5 mM PNPP in microtiter plates, and absorbance at 420 nm was used to measure the extent of hydrolysis of PNPP. Calf intestinal alkaline phosphatase was used as a standard to ensure that PNPP could be hydrolyzed under the conditions of the assay.
Assays that were analyzed for inorganic phosphate instead of glycerol were carried out using the procedure of Marsh, Biochim. […] Blanks were identical assays except without substrate.

[2] = test system: [S. cerevisiae] α-GPase; details: Gancedo et al. 1968; cited from earlier work
[3] = test system: threonine deaminase; details: cited from earlier work
[4] = biological target: T1, B. licheniformis D-GPase; assay: GPase activity assay, substrate specificity (HPLC of glycerol or dephosphorylated compound); assay type: biochemical; details: PNPP at 1.5 mM read at 420 nm
Procedure: (§1) GPase activity was measured by combining cell extract and the appropriate stereoisomer(s) (DL or L) of GP, incubating the mixture, terminating the reaction with acid, and determining the glycerol content by high-performance liquid chromatography (HPLC) analysis. Assay mixtures consisted of, in a total of 500 μl:25 mM MgCl2; 25-50 mM PIPES [piperazine-N,N'-bis(2-ethanesulfonic acid)], pH 7.1; 25-100 mM substrate; and the required volume of cell extract. Incubations were carried out at 37° C. for 30-150 min in microcentrifuge tubes, then 72 μl of 20% trichloroacetic acid (TCA) was added (2.5% final) to each tube to stop the reaction. The samples were spun in a microcentrifuge to remove any precipitate, and the supernatants were filtered through Supor-200 0.2 μm membrane filters (Gelman Sciences, Ann Arbor, Mich.) and analyzed for glycerol by HPLC. Assays for dephosphorylation of other compounds were also analyzed by HPLC (for the dephosphorylated compound) and carried out in the same way as the assays with GP as substrate. Assays for p-nitrophenyl phosphate (PNPP) hydrolysis were the same as with GP as substrate but were carried out with 1.5 mM PNPP in microtiter plates, and absorbance at 420 nm was used to measure the extent of hydrolysis of PNPP. Calf intestinal alkaline phosphatase was used as a standard to ensure that PNPP could be hydrolyzed under the conditions of the assay.
Glycerol in fermentation broths and assay mixtures was measured by HPLC. The mobile phase was 0.01N H2 SO4, run at a flow rate of 0.6 ml/min through an Aminex HPX-87H organic acids column (Bio-Rad, Hercules, Calif.), which was maintained at 65° C. Samples were injected by a model AS-100 autosampler, and chromatograms were printed by a model 3392A integrator; the detector was a model 1770 differential refractometer (all from Bio-Rad).
Upon the finding that a GPase was present in B. licheniformis extracts, the inventors sought to determine which GP isomers are dephosphorylated by the enzyme and whether some other common phosphorylated metabolites can also be accepted as substrates. Because the initial assays were conducted with DL-GP, which also contained a small amount of β-GP, the specificity of the enzyme was unclear. HPLC chromatograms of reactions were run with crude cell extract and either DL-GP, L-GP, or β-GP. […] The low activity with pure β-GP rules out the possibility that the activity seen in assays with DL-GP is due to the presence of β-GP as an impurity in the DL-GP preparation.

[5] = test system: β-galactosidase; details: read-out: Km of β-galactosidase for lactose; cited from earlier work
[6] = biological target: T1, B. licheniformis D-GPase; assay type: biochemical; details: for Relative activity: chloride of the cation added at 25 mM
Procedure: as §1
L-GPases reported in the literature require divalent magnesium. Therefore, the inventors tested the effects of addition of the chlorides of three divalent cations: magnesium, manganese, and calcium (25 mM each).

[7] = test system: carbonic anhydrase; details: read-out: Km of carbonic anhydrase for carbon dioxide; cited from earlier work

Nc1ncnc2c1ncn2[C@@H]1O[C@H](COP(=O)(O)OP(=O)(O)O)[C@@H](O)[C@H]1O [ADP]
effect on specificity and level of D-GPase activity ([1]; 9 mM ADP added to the assays): neither the specificity nor the level of activity of D-GPase was affected

O=P(O)(O)OC[C@@H](O)CO [D-GP, D-α-glycerophosphate]
efficiency of α-GPase on D-GP relative to that on L-GP [2]: 1/30

C[C@@H](O)[C@H](N)C(=O)O [threonine]
Km [3]: ~5 mM

O=C(CO)COP(=O)(O)O [dihydroxyacetone phosphate]
accepted as substrate / hydrolysis by D-GPase ([4]; phosphate): little or no hydrolysis; also recorded: does not accept

OC[C@H]1O[C@@H](O[C@H]2[C@H](O)[C@@H](O)C(O)O[C@@H]2CO)[C@H](O)[C@@H](O)[C@H]1O (some centres unmarked) [lactose]
Km [5]: ~4 mM

[Ca+2] [Ca^2+]
inhibition of D-GPase activity by the cation ([6]; 25 mM chloride): does not inhibit D-GPase activity
Relative activity [6]: 0.08

O=C(O)[C@H](O)COP(=O)(O)O [D-3-phosphoglyceric acid]
accepted as substrate / hydrolysis by D-GPase [4]: little or no hydrolysis; also recorded: does not accept

[Mn+2] [Mn^2+]
Relative activity [6]: 0.53

O=P(O)(O)O [inorganic phosphate]
D-GPase activity retained ([1]; in the presence of 25 mM inorganic phosphate, in vitro hydrolysis of D-GP): 75%
inhibition of D-GPase activity ([1]; inorganic phosphate present in assays of B. licheniformis extracts): did not acutely inhibit

[Mg+2] [Mg^2+]
Relative activity [6]: 1.00

O=P(O)(O)OC[C@H](O)CO [L-α-glycerophosphate]
accepted as substrate / hydrolysis by D-GPase [4]: does not accept

O=C=O [carbon dioxide]
Km [7]: ~8 mM

O=P(O)(O)OC[C@H]1OC(O)[C@H](O)[C@@H](O)[C@@H]1O (some centres unmarked) [glucose-6-phosphate]
accepted as substrate / hydrolysis by D-GPase [4]: little or no hydrolysis; also recorded: does not accept

O=P(O)(O)OC(CO)CO [β-glycerophosphate]
accepted as substrate / hydrolysis by D-GPase [4]: does not accept

D-glyceraldehyde phosphate
accepted as substrate / hydrolysis by D-GPase ([4]; phosphate): little or no hydrolysis; also recorded: does not accept
